From article PMC10797637 (Journal of natural products, 2023)

The compounds below were run on P. falciparum Dd2 (assay: Plasmodium falciparum SYBR Green I assay). Settings: relative to HepG2 cytotoxicity.
Type: cell-based
In the case of `COC(=O)[C@]12Oc3cc4c(c(O)c3C(=O)C1=C(O)CC[C@@H]2O)[C@@H]1C=C[C@@]2(C4)C(=O)c3cc(C)cc(O)c3C(O)=C2C1=O` [compound 8, xanthoquinodin A2], the “P. falciparum SI” value is reported as greater than 50.

What follows are compounds tested on HepG2 human hepatocytes (assay: Human cell cytotoxicity assay). Settings: HepG2, read-out: HepG2 EC50.
Type: cell-based
With `COC(=O)[C@@]12Oc3cc4c(c(O)c3C(=O)C1=C(O)CC[C@@H]2O)[C@@H]1C=C[C@@]2(C4)C(=O)c3cc(C)cc(O)c3C(=O)[C@]2(O)C1=O` [compound 1, xanthoquinodin NPDG A1] the EC50 was greater than 25 µM. `COC(=O)[C@]1([C@@H]2CCC(=O)O2)CC(=O)c2c(cc3c(c2O)[C@@H]2C=C[C@@]4(C3)C(=O)c3cc(C)cc(O)c3C(O)=C4C2=O)O1` [compound 9, xanthoquinodin A3] gave an EC50 greater than 25 µM. Work on `COC(=O)[C@]1([C@@H](O)CCC(=O)O)CC(=O)c2c(cc3c(c2O)[C@@H]2C=C[C@@]4(C3)C(=O)c3cc(C)cc(O)c3C(O)=C4C2=O)O1` [compound 3, xanthoquinodin NPDG A3] yielded an EC50 greater than 25 µM. With `COC(=O)[C@]1([C@@H](O)CCC(=O)O)CC(=O)c2c(cc3c(c2O)[C@@H]2C=C[C@@]4(C3)C(=O)c3cc(C)cc(O)c3C(=O)[C@]4(O)C2=O)O1` [compound 4, Xanthoquinodin NPDG A4] the EC50 was greater than 25 µM. `COC(=O)[C@]12Oc3cc4c(c(O)c3C(=O)C1=C(O)CC[C@@H]2O)[C@@H]1C=C[C@@]2(C4)C(=O)c3cc(C)cc(O)c3C(O)=C2C1=O` [compound 8, xanthoquinodin A2] showed an EC50 greater than 25 µM. `COC(=O)[C@]12Oc3c(c(O)cc4c3[C@@H]3C=C[C@@]5(C4)C(=O)c4cc(C)cc(O)c4C(=O)[C@]5(O)C3=O)C(=O)C1=C(O)CC[C@@H]2O` [compound 6, xanthoquinodin NPDG B1] was tested, and the EC50 was greater than 25 µM. `COC(=O)[C@]1([C@@H]2CCC(=O)O2)CC(=O)c2c(cc3c(c2O)[C@@H]2C=C[C@@]4(C3)C(=O)c3cc(C)cc(O)c3C(=O)[C@]4(O)C2=O)O1` [compound 5, Xanthoquinodin NPDG A5] gave an EC50 greater than 25 µM. Work on `COC(=O)[C@]1([C@@H]2CCC(=O)O2)CC(=O)c2c(O)cc(C)cc2O1` [compound 12, gonytolide C] yielded an EC50 greater than 25 µM. In the case of `COC(=O)[C@@]12Oc3cc4c(c(O)c3C(=O)C1=C(O)CC[C@@H]2O)[C@@H]1C=C[C@@]2(C4)C(=O)c3cc(C)cc(O)c3C(O)=C2C1=O` [compound 7, xanthoquinodin A1], the EC50 is reported as greater than 25 µM.
